Experiments:
[1] = system: BER reconstituted with purified Pol β, FEN1, and LIG I; test: Secondary gel-based BER assay reconstituted with purified core BER enzymes; type: biochemical; conditions: 10 μM compound, THF substrate
Procedure: The secondary screening assay was performed as described below in the “Materials and Methods” section. Lane 1 represents the substrate only. Lane 2 indicates the reaction mixture with 5 nM APE1. Lanes 3 and 4 correspond to the reaction mixture with 5 nM APE1, 10 nM pol β, 10 nM FEN1 and 20 nM LIG I in the absence and presence of dimethylsulfoxide (DMSO). Lanes 5 through 19 correspond to the reaction mixture with 5 nM APE1, 10 nM pol β, 10 nM FEN1 and 20 nM LIG I in the presence of indicated compounds. The experiments were repeated at least three times. A representative gel is illustrated.
The hit compounds were subject to secondary assays to determine their ability to reduce the BER capacity when reconstituted with purified core BER enzymes, as well as their inhibitory effects on individual BER enzymes including pol FEN1 and LIG I. The effect of hit compounds on BER capacity and BER enzymes was examined using a denaturing sequencing gel-based assay. 10 μM hit compounds were incubated with 10 nM pol β, 10 nM FEN1 and 20 nM LIG I in BER reaction buffer containing 50 mM Tris-HCl (pH 7.5), 50 mM KCl, 0.1 mM EDTA, 0.1 mg/ml bovine serum albumin, and 0.01% Nonidet P-40 in the presence of 5 mM Mg^2+ and 2 mM ATP. The compounds were initially preincubated with a BER enzyme at varying concentrations for 1 h with rotation. This was followed by the addition of 25 nM ^32P-labeled substrate containing an abasic site, which was precut with 25 or 50 nM APEI. The reaction mixture (20 μL) was incubated at 37° C. for 30 min, and the reaction was terminated by 50 mM EDTA. Substrates, products, and unrepaired BER intermediates were separated by 15% urea-denaturing sequencing gel and detected by a Pharos FX Plus PhosphorImager (Bio-Rad, Hercules, Calif.).
Among the 26 identified compounds, nine were DNA intercalators or inhibitors of human DNA topoisomerases and were excluded from further studies. Thus, […] FDA approved drugs were selected for further testing. To further confirm the inhibitory effects of the lead compounds on BER, the effects of the compounds on BER reactions reconstituted with purified BER core enzymes were initially determined.

RWPE1 cells [2] = test: Cell Titer Glo cell viability assay, RWPE1; type: cell-based; conditions: 10 μM; after 24 h and 48 h; serum free medium with EGF and BPE
Procedure: FIGS. 4A-4B show cellular toxicity of lead compounds in nonmalignant androgen independent prostate-derived cell lines. (4A) PNT1A cells were plated in a 96-well plate at 1×10^4 cell/well in the presence of FBS or CSS. Cells were allowed to attach overnight and were treated with either vehicle (DMSO) or 10 μM of indicated compound. At 24 and 48 h, cellular viability was compared using the Cell Titer Glo Luminescent Cell Viability kit. (4B) RWPE1 cells were plated in a 96-well plate at 1×10^4 cells/well using the specified serum free media. Cells were allowed to attach overnight and treated with 10 μM of indicated compound.
Cell viability was determined using the Cell Titer Glo Cell Viability Assay (Promega, Madison, Wis.), as recommended by manufacturer. All experiments were performed in quadruplicate.
Next, whether the same concentration of compounds decreases the viability of the AR negative and nonmalignant prostate derived cells, PNT1A and RWPE1, was tested.

RWPE1 cells [3] = test: RTCA impedance proliferation assay, RWPE1; type: cell-based; conditions: 10 μM; serum free medium
Procedure: (6A-6B) PNT1A cells were plated onto xCelligence E-plates at 5×10^4 cells per well in media supplemented with 10% FBS (6A) or CSS (6B). Cells were allowed to attach overnight and treated with vehicle (DMSO) or 10 μM of indicated compounds. Cellular impedance was monitored continuously with 30 min intervals. (6C) RWPE1 cells were plated at 5×10^4 cells per well in serum free medium supplemented with Epidermal Growth Factor (EGF) and Bovine Pituitary Extract ([…]) onto E-plates and treated with 10 μM of indicated compounds as indicated. […] Proliferation assays were done using Roche DP Real Time Cell Analyzer (RTCA), as described by the manufacturer. Background impedance was established after incubating E-plates (Acea Biosciences, San Diego, Calif.) with 50 μL media at room temperature for 30 min and placed in RTCA. Cells were then seeded in 100 μL per well. Cells attached overnight and then treated. During attachment stage and after treatment impedance was measured every 30 min. Impedance is represented by cell index and is calculated as follows: CI=(Zi−Zo)/15Ω where Zi is impedance at an individual time point, and Zo is the background impedance. Average CI was calculated from four wells per treatment at each time point and normalized to the impedance immediately after compound addition.

BER capacity and production of the BER repair product [1] | SMILES | RWPE1 cell viability (RWPE1 cells [2]) | RWPE1 proliferation (RWPE1 cells [3])
significantly reduced BER capacity | CC(C)(O/N=C(\C(=O)N[C@@H]1C(=O)N2C(C(=O)[O-])=C(C[n+]3ccccc3)CS[C@H]12)c1csc(N)n1)C(=O)O [ceftazidime] | – | –
significantly reduced BER capacity | C=C1/C(=C\C=C2/CCC[C@]3(C)[C@@H]([C@H](C)/C=C/[C@@H](O)C4CC4)CC[C@@H]23)C[C@@H](O)C[C@@H]1O [calcipotriene] | significantly decreased | slightly inhibited
significantly reduced BER capacity | CC(=O)Oc1cc2c(s1)CCN(C(C(=O)C1CC1)c1ccccc1F)C2 (stereo not shown) [prasugrel] | significantly decreased | –

SMILES | BER capacity and production of the BER repair product [1] | RWPE1 cell viability (RWPE1 cells [2]) | RWPE1 proliferation (RWPE1 cells [3])
C[C@@H]1[C@H](O)[C@@H](C)/C=C/C=C/CC/C=C/C=C/C=C/C=C/C(O[C@H]2O[C@H](C)[C@@H](O)[C@H](N)[C@@H]2O)CC2O[C@](O)(CC(O)C(O)CCC(O)CC(O)CC(O)CC(=O)O[C@H]1C)CC(O)C2C(=O)O (stereo partly shown) [nystatin] | significantly reduced BER capacity | – | –
